Experimental data from patent US20130225641A1, “ANTICANCER COMPOUNDS AND PREPARATION METHODS THEREOF” (priority 2010, published 2013).

How the values were obtained:
[1] = system: PC3; assay: MTT cytotoxicity, PC3; assay type: cell-based; conditions: Homo sapiens, PC-3, PC3, Prostatic, 72 hrs, read-out: LC50 (the source's name)
Description: (§1) The cytotoxicity of ZTP and ZTQ was analyzed by using human tumor cell lines. Human tumor cell lines were purchased from ATCC and NCI, and cultured in DMEM medium containing 10% FBS at 37° C. in 5% CO2 in an incubator. The cells grown to confluence were used for cytotoxicity analysis. The cells were digested with trypsin, washed with the culture medium, and then counted. 33 tumor cell lines were cultured. The cells were seeded at a density of 3000-6000 cells/well in a 96-well plate and incubated for 16-24 hrs. Then, various concentrations of ZTP or ZTQ dissolved in DMSO were added, and cultured for 72 hrs. The drug-treated cells and control cells were analyzed by MTT.

[2] = system: SK-MEL-5; assay: MTT cytotoxicity, SK-MEL-5; assay type: cell-based; conditions: Homo sapiens, SK-MEL-5, Skin (melanoma), 72 hrs, read-out: LC50 (the source's name)
Description: as §1

[3] = MTT cytotoxicity, HUMEC human microvascular endothelial cell; assay type: cell-based; conditions: HUMEC human microvascular endothelial cells, read-out: LC50
Description: [Worded in the source for another cell line; this cell line is reported under the same test.] as §1

[4] = system: LnCAP; assay: MTT cytotoxicity, LnCAP; assay type: cell-based; conditions: Homo sapiens, Prostatic, 72 hrs, read-out: LC50 (the source's name)
Description: as §1

[5] = system: IGROV1; assay: MTT cytotoxicity, IGROV1; assay type: cell-based; conditions: Homo sapiens, IGROV-1, IGROV1, Ovarian, 72 hrs, read-out: LC50 (the source's name)
Description: as §1

[6] = system: VEGFR protein kinase; assay: Inhibition of VEGFR protein kinase activity (phosphorylated VEGFR, western blotting) in HUMEC cells; assay type: cell-based, human; conditions: 1 hour treatment, phosphorylated VEGFR level, read-out: median inhibitory concentration (IC50) for inhibiting the activity of VEGFR protein kinase
Description: VEGFR is a vascular endothelial growth factor receptor regulating the growth, migration, and differentiation of vascular endothelial cells, and determining the start of angiogenesis of tumors. After being stimulated by vascular endothelial cell growth factors, VEGFR forms a dimer, activates its kinase, and makes themselves phosphorylated. The level of the activity of VEGFR protein kinase is detected according to the phosphorylated degree of VEGFR. In this test, we used human microvascular endothelial cells (HUMECs) to determine whether ZTP and ZTQ can inhibit the activity of VEGFR protein kinase. HUMEC cells were subjected to adherent growth in DMEM medium (GIBCO-BRL) containing 10% bovine calf serum at 37° C. in 5% CO2. The cells were treated with various concentrations of ZTP and ZTQ (0, 10 ng/ml, 100 ng/ml, 500 ng/ml, 1 μg/ml, and 10 μg/ml), and the cell proteins were collected 1 hour after treatment. The protein content was determined through Bradford method, and then the level of phosphorylated VEGFR was assayed through western blotting. Immunoblotting experiment: denatured polyacrylamide gel was used for separation of the proteins with a sample load of 60 μg of total proteins. The proteins were electro-transferred onto a PVDF membrane and blocked. […] The membrane was exposed to an X-ray film, and the results were analyzed by a gel imaging system. […]

[7] = system: HepG3B; assay: MTT cytotoxicity, HepG3B; assay type: cell-based; conditions: Homo sapiens, Liver, 72 hrs, read-out: LC50 (the source's name)
Description: as §1

[8] = system: BT-549; assay: MTT cytotoxicity, BT-549; assay type: cell-based; conditions: Homo sapiens, BT-549, Breast, 72 hrs, read-out: LC50 (the source's name)
Description: as §1

[9] = system: CNE-2Z; assay: MTT cytotoxicity, CNE-2Z; assay type: cell-based; conditions: Homo sapiens, CNE2Z, Nasopharyngeal, 72 hrs, read-out: LC50 (the source's name)
Description: as §1

[10] = system: EC109; assay: MTT cytotoxicity, EC109; assay type: cell-based; conditions: Homo sapiens, ECa-109, EC109, Esophageal, 72 hrs, read-out: LC50 (the source's name)
Description: as §1

[11] = system: A549; assay: MTT cytotoxicity, A549; assay type: cell-based; conditions: Homo sapiens, A549, Lung, 72 hrs, read-out: LC50 (the source's name)
Description: as §1

[12] = system: 786-O; assay: MTT cytotoxicity, 786-O; assay type: cell-based; conditions: Homo sapiens, 786-0, Renal, 72 hrs, read-out: LC50 (the source's name)
Description: as §1

[13] = system: CCL-225; assay: MTT cytotoxicity, CCL-225; assay type: cell-based; conditions: Homo sapiens, CCL-225, Colonic, 72 hrs, read-out: LC50 (the source's name)
Description: as §1

[14] = system: MDA-MB-231; assay: MTT cytotoxicity, MDA-MB-231; assay type: cell-based; conditions: Homo sapiens, MDA-MB-231, Breast, 72 hrs, read-out: LC50 (the source's name)
Description: as §1

[15] = system: MDA-MB-435; assay: MTT cytotoxicity, MDA-MB-435; assay type: cell-based; conditions: Homo sapiens, MDA-MB-435, Breast, 72 hrs, read-out: LC50 (the source's name)
Description: as §1

Row | Compound | CC50 [1] [nM] | CC50 [2] [nM] | CC50 at 72 h [3] [nM] | CC50 [4] [nM] | CC50 [5] [nM] | IC50 [6] [nM] | CC50 [7] [nM] | CC50 [8] [nM] | CC50 [9] [nM] | CC50 [10] [nM] | CC50 [11] [nM] | CC50 [12] [nM] | CC50 [13] [nM] | CC50 [14] [nM] | CC50 [15] [nM]
1 | CNC(=O)c1cc(Oc2ccc(NC(=S)Nc3ccc(Cl)c(C(F)(F)F)c3)cc2)ccn1 [ZTP, N-[4-chloro-3-(trifluoromethyl)phenyl]-[4-(N-methyl-formamide)(4-pyridyloxy)phenyl]-thiourea] | 1310 | 1990 | 31 | 1050 | 920 | 21 | 1710 | 1090 | 1890 | 1480 | 1220 | 1750 | 1980 | 1190 | 1370
2 | CNC(=O)c1cc(Sc2ccc(NC(=S)Nc3ccc(Cl)c(C(F)(F)F)c3)cc2)ccn1 [ZTQ, N-[4-chloro-3-(trifluoromethyl)phenyl]-[4-(N-methyl-formamide)(4-pyridylthio)phenyl]-thiourea] | 1050 | 1540 | 19 | 820 | 730 | 9 | 1230 | 890 | 1310 | 1120 | 1010 | 1260 | 1430 | 1030 | 1120
